Biological target: Human factor D (Homo sapiens (Human), UniProt P00746)
Test: Human Factor D Assay
Type: biochemical
Settings: Human factor D purified from human serum, 80 nM; substrate Z-L-Lys-SBzl with DTNB; assay of Example 8
Experimental: The assay of Example 8 was used to determine the IC50's of the compounds. Other standard factor D inhibition assays are also available.
Example 8. Human Factor D Assay
Human factor D (purified from human serum, Complement Technology, Inc.) at 80 nM final concentration is incubated with test compound at various concentrations for 5 minutes at room temperature in 50 mM Tris, 1M NaCl, pH 7.5. A synthetic substrate Z-L-Lys-SBzl and DTNB (Ellman's reagent) are added to final concentrations of 100 µM each. The increase in color is recorded at OD405 nm in a microplate in kinetic mode over 30 minutes with 30 second time points in a […]. IC50 values are calculated by non-linear regression from the percentage of inhibition of complement factor D activity as a function of test compound concentration.

Chain of Human factor D (P00746 26-253): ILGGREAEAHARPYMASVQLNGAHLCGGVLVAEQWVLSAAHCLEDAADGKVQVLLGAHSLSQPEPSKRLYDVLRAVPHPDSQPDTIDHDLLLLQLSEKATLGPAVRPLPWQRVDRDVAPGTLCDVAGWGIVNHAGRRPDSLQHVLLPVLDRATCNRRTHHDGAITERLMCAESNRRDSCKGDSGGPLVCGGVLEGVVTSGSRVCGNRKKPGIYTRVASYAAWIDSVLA

Row | SMILES | IC50 [µM]
1 | CC(=O)c1cn(CC(=O)N2C[C@H](F)C[C@H]2C(=O)Nc2ccc(OC(F)(F)F)c(F)c2)c2cc(OCP(=O)(O)O)ccc12 [Compound 25, (3-acetyl-1-(2-((2S,4R)-4-fluoro-2-(3-fluoro-4-(trifluoromethoxy)phen-ylcarbamoyl)pyrrolidin-1-yl)-2-oxoethyl)-1H-indol-6-yloxy)methylphosphonic acid] | < 1
2 | CC(=O)c1cn(CC(=O)N2C[C@H](F)C[C@H]2C(=O)Nc2cccc(Oc3ccccc3)c2)c2cc(OCP(=O)(O)O)ccc12 [Compound 26, (3-acetyl-1-(2-((2S,4R)-4-fluoro-2-(3-phenoxy-phenylcarbamoyl)pyrrolidin-1-yl)-2-oxoethyl)-1H-indol-6-yloxy)methylphosphonic acid] | < 1
3 | CC(=O)c1cn(CC(=O)N2C[C@H](F)C[C@H]2C(=O)Nc2cccc(OC(F)(F)F)c2F)c2cc(OCP(=O)(O)O)ccc12 [Compound 27, (3-acetyl-1-(2-((2S,4R)-4-fluoro-2-(2-fluoro-3-(trifluoromethoxy)phenyl-carbamoyl)pyrrolidin-1-yl)-2-oxoethyl)-1H-indol-6-yloxy)methylphosphonic acid] | < 1
4 | CC(C)(C)NS(=O)(=O)COc1ccc2c(C(N)=O)nn(CC(=O)N3C[C@H](F)C[C@H]3C(=O)Nc3cccc(-c4ccccc4Cl)c3F)c2c1 [Compound 28, 6-(N-tert-butylsulfamoylmethoxy)-1-(2-((2S,4R)-2-(2′-chloro-2-fluorobiphenyl-3-ylcarbamoyl)-4-fluoropyrrolidin-1-yl)-2-oxoethyl)-1H-indazole-3-carboxamide] | < 1
5 | NC(=O)c1nn(CC(=O)N2C[C@H](F)C[C@H]2C(=O)Nc2cccc(-c3ccccc3Cl)c2F)c2cc(OCS(N)(=O)=O)ccc12 [Compound 29, 1-(2-((2S,4R)-2-(2′-chloro-2-fluorobiphenyl-3-ylcarbamoyl)-4-fluoropyrrolidin-1-yl)-2-oxoethyl)-6-(sulfamoylmethoxy)-1H-indazole-3-carboxamide] | < 1
6 | CC(=O)c1cn(CC(=O)N2C[C@H](F)C[C@H]2C(=O)NCc2cccc(Cl)c2F)c2cc(Oc3ncccn3)ccc12 [Compound 30, (2S,4R)-1-(2-(3-acetyl-6-(pyrimidin-2-yloxy)-1H-indol-1-yl)acetyl)-N-(3-chloro-2-fluorobenzyl)-4-fluoropyrrolidine-2-carboxamide] | < 1
7 | NC(=O)c1nn(CC(=O)N2C[C@H](F)C[C@H]2C(=O)Nc2cccc(-c3ccccc3Cl)c2F)c2ccc(Oc3cncnc3)cc12 [Compound 31, 1-(2-((2S,4R)-2-(2′-chloro-2-fluorobiphenyl-3-ylcarbamoyl)-4-fluoropyrrolidin-1-yl)-2-oxoethyl)-5-(pyrimidin-5-yloxy)-1H-indazole-3-carboxamide] | < 1
8 | CC(=O)c1cn(CC(=O)N2C[C@H](F)C[C@H]2C(=O)Nc2cccc(-c3ccccc3Cl)c2F)c2cc(Oc3ncccn3)ccc12 [Compound 32, (2S,4R)-1-(2-(3-acetyl-6-(pyrimidin-2-yloxy)-1H-indol-1-yl)acetyl)-N-(2′-chloro-2-fluorobiphenyl-3-yl)-4-fluoropyrrolidine-2-carboxamide] | < 1
9 | CC(=O)c1cn(CC(=O)N2C[C@H](F)C[C@H]2C(=O)Nc2cccc(-c3ccccc3Cl)c2F)c2ccc(Oc3ncc(Br)cn3)cc12 [Compound 33, (2S,4R)-1-(2-(3-acetyl-5-(5-bromopyrimidin-2-yloxy)-1H-indol-1-yl)acetyl)-N-(2′-chloro-2-fluorobiphenyl-3-yl)-4-fluoropyrrolidine-2-carboxamide] | < 1
10 | CC(=O)c1cn(CC(=O)N2C[C@H](F)C[C@H]2C(=O)Nc2cccc(-c3ccccc3Cl)c2F)c2ccc(Oc3cnc(C#N)nc3)cc12 [Compound 36, (2S,4R)-1-(2-(3-acetyl-5-(2-cyanopyrimidin-5-yloxy)-1H-indol-1-yl)acetyl)-N-(2′-chloro-2-fluorobiphenyl-3-yl)-4-fluoropyrrolidine-2-carboxamide] | < 1
11 | CC(=O)c1cn(CC(=O)N2C[C@H](F)C[C@H]2C(=O)Nc2cccc(-c3ccccc3Cl)c2F)c2ccc(Oc3ncc(F)cn3)cc12 [Compound 37, (2S,4R)-1-(2-(3-acetyl-5-(5-fluoropyrimidin-2-yloxy)-1H-indol-1-yl)acetyl)-N-(2′-chloro-2-fluorobiphenyl-3-yl)-4-fluoropyrrolidine-2-carboxamide] | < 1
12 | CC(=O)c1cn(CC(=O)N2C[C@H](F)C[C@H]2C(=O)Nc2cccc(-c3ccccc3Cl)c2F)c2ccc(Oc3ncccn3)cc12 [Compound 38, (2S,4R)-1-(2-(3-acetyl-5-(pyrimidin-2-yloxy)-1H-indol-1-yl)acetyl)-N-(2′-chloro-2-fluorobiphenyl-3-yl)-4-fluoropyrrolidine-2-carboxamide] | < 1
13 | CC(=O)c1cn(CC(=O)N2C[C@H](F)C[C@H]2C(=O)Nc2cccc(Br)n2)c2ccc(Oc3ncccn3)cc12 [Compound 39, (2S,4R)-1-(2-(3-acetyl-5-(pyrimidin-2-yloxy)-1H-indol-1-yl)acetyl)-N-(6-bromopyridin-2-yl)-4-fluoropyrrolidine-2-carboxamide] | < 1
14 | CC(=O)c1cn(CC(=O)N2C[C@H](F)C[C@H]2C(=O)Nc2cccc(-c3ccccc3Cl)c2F)c2ccc(Oc3ncc(C)cn3)cc12 [Compound 40, (2S,4R)-1-(2-(3-acetyl-5-(5-methylpyrimidin-2-yloxy)-1H-indol-1-yl)acetyl)-N-(2′-chloro-2-fluorobiphenyl-3-yl)-4-fluoropyrrolidine-2-carboxamide] | < 1
15 | CC(=O)c1cn(CC(=O)N2C[C@H](F)C[C@H]2C(=O)Nc2cccc(Br)n2)c2ccc(Oc3ncc(C)cn3)cc12 [Compound 41, (2S,4R)-1-(2-(3-acetyl-5-(5-methylpyrimidin-2-yloxy)-1H-indol-1-yl)acetyl)-N-(6-bromopyridin-2-yl)-4-fluoropyrrolidine-2-carboxamide] | < 1
16 | CC(=O)c1cn(CC(=O)N2C[C@H](F)C[C@H]2C(=O)Nc2cccc(-c3ccccc3Cl)c2F)c2ccc(Oc3ncc(C(F)(F)F)cn3)cc12 [Compound 42, (2S,4R)-1-(2-(3-acetyl-5-(5-(trifluoromethyl)pyrimidin-2-yloxy)-1H-indol-1-yl)acetyl)-N-(2′-chloro-2-fluorobiphenyl-3-yl)-4-fluoropyrrolidine-2-carboxamide] | < 1
17 | CC(=O)c1cn(CC(=O)N2C[C@H](F)C[C@H]2C(=O)Nc2cccc(-c3ccccc3Cl)c2F)c2ccc(Oc3cnc(Cl)nc3)cc12 [Compound 43, (2S,4R)-1-(2-(3-acetyl-5-(2-chloropyrimidin-5-yloxy)-1H-indol-1-yl)acetyl)-N-(2′-chloro-2-fluorobiphenyl-3-yl)-4-fluoropyrrolidine-2-carboxamide] | < 1
